Data on 2 molecules can be found in US6355289B1, “Method for preserving tortillas made from corn or wheat” (Kemin Industries, Inc., priority 1996, dated 2002).

Series [1] deals with bacteria, mold, and yeast. As to the kind of experiment: Carbon dioxide production of tortillas from treated dough. Particulars: antimicrobial added to propionic/phosphoric acid preparation.
Text: In the laboratory, shelf life of varying formulations of tortillas can be compared by monitoring the output of carbon dioxide produced by the bacteria, mold, and yeast.
Tortillas were then manufactured from the treated dough.
For series [2] the following is noted: food pH 5.4; cited from earlier work.

Turning to `O=C(O)c1ccccc1` [benzoic acid], the “effectiveness in controlling fermented odor / preventing spoilage” value in series [1] was “best qualities for preventing spoilage”. The acid undissociated in series [2] is listed as 7.75%.
For `CCC(=O)O` [propionic acid], the acid undissociated in series [2] is 20%.
